Measured values taken from ChEMBL document CHEMBL1201862, “PubChem BioAssay data set” (2004).
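Protocol summary: plate cells (96-well), add compound at 5 concentrations, incubate 48 h, interpolate endpoints linearly. GI50 is the concentration that inhibits growth by half.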 Active and inactive are the calls of the source. Cut-off read from the data, not from the text of the source: active = GI50 up to about 1.1 µM and inactive = higher.

Experiments:
Assay in all cases: NCI tumour cell line growth inhibition, 48 h
CAKI-1 = system: CAKI-1
CCRF-CEM = system: CCRF-CEM
HCT-116 = system: HCT-116
HCT-15 = system: HCT-15
HT-29 = system: HT-29
Hs-578T = system: Hs-578T
KM12 = system: KM12
M14 = system: M14
MCF7 = system: MCF7
MDA-MB-231 = system: MDA-MB-231
MDA-N = system: MDA-N
MOLT-4 = system: MOLT-4
PC-3 = system: PC-3
SF-268 = system: SF-268
SNB-19 = system: SNB-19
SW-620 = system: SW-620
T47D = system: T47D
U-251 = system: U-251
UACC-62 = system: UACC-62
BT-549 = system: BT-549

SMILES | GI50 (CAKI-1) | GI50 (CCRF-CEM) | GI50 (HCT-116) | GI50 (HCT-15) | GI50 (HT-29) | GI50 (Hs-578T) | GI50 (KM12) | GI50 (M14) | GI50 (MCF7) | GI50 (MDA-MB-231) | GI50 (MDA-N) | GI50 (MOLT-4) | GI50 (PC-3) | GI50 (SF-268) | GI50 (SNB-19) | GI50 (SW-620) | GI50 (T47D) | GI50 (U-251) | GI50 (UACC-62) | GI50 (BT-549)
C[C@H](CCC(=O)O)[C@H]1CC[C@H]2[C@@H]3[C@@H](O)C[C@@H]4C[C@H](O)CC[C@]4(C)[C@H]3C[C@H](O)[C@]12C | > 100 µM (inactive) | > 100 µM (inactive) | > 100 µM (inactive) | > 100 µM | > 100 µM (inactive) | 16.4 µM (inactive) | > 100 µM (inactive) | > 100 µM (inactive) | > 100 µM (inactive) | > 100 µM (inactive) | > 100 µM (inactive) | > 100 µM (inactive) | > 100 µM (inactive) | > 100 µM (inactive) | > 100 µM (inactive) | > 100 µM (inactive) | > 100 µM (inactive) | > 100 µM (inactive) | > 100 µM (inactive) | –
C[Si](C)(C)C1=C2C(=O)c3ccccc3C(=O)C2=C([Si](C)(C)C)[C@@H]2CCCC[C@H]12 | > 100 µM (inactive) | > 100 µM (inactive) | > 100 µM (inactive) | > 100 µM | – | – | – | > 100 µM (inactive) | > 100 µM (inactive) | > 100 µM (inactive) | > 100 µM (inactive) | > 100 µM (inactive) | > 100 µM (inactive) | – | > 100 µM (inactive) | > 100 µM (inactive) | > 100 µM (inactive) | > 100 µM (inactive) | > 100 µM (inactive) | > 100 µM (inactive)
COc1ccc(N2C(=O)C3c4[nH]c5ccccc5c4C4CCCCCCCC4C3C2=O)cc1 (centres undefined) | > 10 µM (inactive) | 2.07 µM (inactive) | 1.7 µM (inactive) | > 10 µM | > 10 µM (inactive) | > 10 µM (inactive) | > 10 µM (inactive) | > 10 µM (inactive) | > 10 µM (inactive) | > 10 µM (inactive) | > 10 µM (inactive) | > 10 µM (inactive) | > 10 µM (inactive) | > 10 µM (inactive) | > 10 µM (inactive) | > 10 µM (inactive) | > 10 µM (inactive) | > 10 µM (inactive) | > 10 µM (inactive) | –
CC(NC(CC12CC3CC(CC(C3)C1)C2)C(N)=O)c1ccccc1 (centres undefined) | 23.3 µM (inactive) | 19.1 µM (inactive) | 18.7 µM (inactive) | 31.7 µM | 21 µM (inactive) | – | – | 21.1 µM (inactive) | 35 µM (inactive) | 29.3 µM (inactive) | 25.6 µM (inactive) | 16.2 µM (inactive) | 27 µM (inactive) | 25 µM (inactive) | 28.9 µM (inactive) | 31.1 µM (inactive) | 35.6 µM (inactive) | 13.3 µM (inactive) | 20.3 µM (inactive) | –
COc1cc(CNC(=O)CCCCCCCC/C=C/Br)ccc1O | > 10 µM (inactive) | > 10 µM (inactive) | > 10 µM (inactive) | > 10 µM | > 10 µM (inactive) | > 10 µM (inactive) | > 10 µM (inactive) | > 10 µM (inactive) | > 10 µM (inactive) | > 10 µM (inactive) | > 10 µM (inactive) | > 10 µM (inactive) | > 10 µM (inactive) | > 10 µM (inactive) | > 10 µM (inactive) | > 10 µM (inactive) | > 10 µM (inactive) | > 10 µM (inactive) | > 10 µM (inactive) | –
NNc1[nH]c(=S)[nH]c1C(N)=O | – | > 100 µM (inactive) | > 100 µM (inactive) | > 100 µM | > 100 µM (inactive) | > 100 µM (inactive) | > 100 µM (inactive) | > 100 µM (inactive) | > 100 µM (inactive) | > 100 µM (inactive) | – | > 100 µM (inactive) | > 100 µM (inactive) | > 100 µM (inactive) | – | > 100 µM (inactive) | > 100 µM (inactive) | > 100 µM (inactive) | > 100 µM (inactive) | > 100 µM (inactive)
CCOP(=O)(OCC)C(c1ccc(F)cc1)N(C(=O)NC(F)(F)F)c1ccc(F)cc1 (centres undefined) | > 100 µM (inactive) | > 100 µM (inactive) | > 100 µM (inactive) | > 100 µM | > 100 µM (inactive) | > 100 µM (inactive) | > 100 µM (inactive) | > 100 µM (inactive) | > 100 µM (inactive) | > 100 µM (inactive) | > 100 µM (inactive) | > 100 µM (inactive) | > 100 µM (inactive) | > 100 µM (inactive) | > 100 µM (inactive) | > 100 µM (inactive) | – | > 100 µM (inactive) | – | –
COC(=O)C1(NC(=O)C(Cc2ccccc2)N(C(=O)OC(C)(C)C)C(=O)OC(C)(C)C)CCCC1 (centres undefined) | – | 22.9 µM (inactive) | 55.7 µM (inactive) | 66.4 µM | – | > 100 µM (inactive) | – | > 100 µM (inactive) | 27.5 µM (inactive) | 80.9 µM (inactive) | > 100 µM (inactive) | 31.8 µM (inactive) | 31 µM (inactive) | > 100 µM (inactive) | > 100 µM (inactive) | > 100 µM (inactive) | 36.6 µM (inactive) | 49.5 µM (inactive) | 20.1 µM (inactive) | –
Cc1cc(C#N)c(Nc2ccc(F)cc2[N+](=O)[O-])s1 | 84.9 µM (inactive) | > 100 µM (inactive) | > 100 µM (inactive) | > 100 µM | – | – | > 100 µM (inactive) | 71.1 µM (inactive) | – | 21.5 µM (inactive) | > 100 µM (inactive) | > 100 µM (inactive) | > 100 µM (inactive) | 25.5 µM (inactive) | > 100 µM (inactive) | > 100 µM (inactive) | > 100 µM (inactive) | 26.8 µM (inactive) | > 100 µM (inactive) | 24.4 µM (inactive)
C(=N/NC1=NCCN1)/c1c2ccccc2c(/C=N\NC2=NCCN2)c2ccccc12 | 0.526 µM (active) | 0.0408 µM (active) | 0.0603 µM (active) | 19.7 µM | 0.0923 µM (active) | 0.06 µM (active) | 0.0885 µM (active) | 0.171 µM (active) | 0.0568 µM (active) | 6.56 µM (inactive) | 0.113 µM (active) | 0.0376 µM (active) | 0.0687 µM (active) | 0.0738 µM (active) | 0.0746 µM (active) | 0.113 µM (active) | 0.11 µM (active) | 0.061 µM (active) | 0.0902 µM (active) | –
O=C1C2=Cc3ccccc3OC2(O)Oc2ccc(O)cc21 (centres undefined) | 48.4 µM (inactive) | 7.83 µM (inactive) | > 100 µM (inactive) | 38.6 µM | > 100 µM (inactive) | – | > 100 µM (inactive) | > 100 µM (inactive) | > 100 µM (inactive) | > 100 µM (inactive) | > 100 µM (inactive) | 62.5 µM (inactive) | 73.3 µM (inactive) | > 100 µM (inactive) | – | > 100 µM (inactive) | > 100 µM (inactive) | > 100 µM (inactive) | 61.8 µM (inactive) | 4.71 µM (inactive)
CCC1=CC2CN3CCc4c([nH]c5ccccc45)C(C(=O)OC)(C2)C13 (centres undefined) | 20.8 µM (inactive) | 50.5 µM (inactive) | 35.6 µM (inactive) | 44.2 µM | 22.7 µM (inactive) | – | 20 µM (inactive) | – | 44.6 µM (inactive) | – | – | 39.8 µM (inactive) | – | 54.5 µM (inactive) | 46 µM (inactive) | 41.9 µM (inactive) | – | 7.26 µM (inactive) | 37.8 µM (inactive) | –
O=c1c2cn[nH]c2nc2scc(-c3ccc(Cl)cc3)n12 | > 100 µM (inactive) | > 100 µM (inactive) | > 100 µM (inactive) | > 100 µM | > 100 µM (inactive) | 41.7 µM (inactive) | > 100 µM (inactive) | > 100 µM (inactive) | > 100 µM (inactive) | > 100 µM (inactive) | > 100 µM (inactive) | > 100 µM (inactive) | > 100 µM (inactive) | > 100 µM (inactive) | > 100 µM (inactive) | > 100 µM (inactive) | > 100 µM (inactive) | > 100 µM (inactive) | > 100 µM (inactive) | –
COC(=O)c1ccc2c(c1)CC1(C2)Cc2ccccc2C1=O (centres undefined) | 34.7 µM (inactive) | 19.9 µM (inactive) | 23.8 µM (inactive) | 36.2 µM | 17.5 µM (inactive) | 69.7 µM (inactive) | – | 18.7 µM (inactive) | 22.9 µM (inactive) | 22.7 µM (inactive) | 27.7 µM (inactive) | 15.4 µM (inactive) | 42.8 µM (inactive) | 35 µM (inactive) | 66.1 µM (inactive) | 32.7 µM (inactive) | 37.8 µM (inactive) | 34.2 µM (inactive) | – | –
NC1=NC(c2ccccc2)CC(c2cc(Cl)cc(Br)c2O)=N1 (centres undefined) | 13.3 µM (inactive) | 7.71 µM (inactive) | 12.1 µM (inactive) | 7.64 µM | 13.5 µM (inactive) | – | 11 µM (inactive) | 14.7 µM (inactive) | 2.44 µM (inactive) | – | – | 3.1 µM (inactive) | – | 11.7 µM (inactive) | 17 µM (inactive) | 8.2 µM (inactive) | – | 12.5 µM (inactive) | 10.1 µM (inactive) | –
O=C(NCCCl)Nc1cccnc1 | 21.5 µM (inactive) | 33.7 µM (inactive) | 13.8 µM (inactive) | 22.3 µM | 18.4 µM (inactive) | – | 13.8 µM (inactive) | 17.6 µM (inactive) | 41.3 µM (inactive) | 17.4 µM (inactive) | 12.8 µM (inactive) | 33 µM (inactive) | 31.4 µM (inactive) | – | 41.4 µM (inactive) | 50.7 µM (inactive) | 35.7 µM (inactive) | 16.7 µM (inactive) | 15.3 µM (inactive) | –
